Assay results published in patent publication US10568868B2, “Methods and compositions for treating metabolic reprogramming disorders” (THE JOHNS HOPKINS UNIVERSITY, priority 2015, dated 2020).

Key:
[1] = In vitro liver microsomal stability, pig microsomes
[2] = In vitro liver microsomal stability, human microsomes
[3] = Pharmacokinetics of DON in swine plasma and CSF after i.v. infusion of DON, compound 14b or compound 47; type: in vivo; conditions: for CSF-to-plasma ratio of DON: 60 min post-administration; for amount of DON delivered to the CSF relative to DON: CSF at 60 min post-dose
Description: Compound: Compound 47 was dissolved in a sterile saline containing 5% ethanol and 5% Tween 80 on the date of administration.
Swine: Swine studies were conducted under a protocol approved by the Johns Hopkins Animal Care and Use Committee. Adult, female Gottingen×Yucutan miniature swine (Massachusetts General Hospital, MA) were housed in Johns Hopkins University facilities accredited by the Association for Assessment and Accreditation of Laboratory Animal Care International in compliance with the Animal Welfare Act, Animal Welfare Regulations, and the Public Health Service Policy on the Humane Care and Use of Laboratory Animals. Animals were maintained on a 14-h light and 10-h dark schedule, provided ad libitum water and a commercial miniswine diet (Teklad, Madison, Wis.) with environmental enrichment (fruit/vegetables) twice daily.

CD4+ T cells = test: Extracellular flux analysis (ECAR, OCR) of CD4+ T cells stimulated with anti-CD3/CD28; type: cell-based, 5C.C7 mice; conditions: 2-DG 10 mM; Metformin 50 mM; DON 30 μM; after anti-CD3/CD28
Description: Extracellular flux analysis: Cells were initially plated to XF assay medium, modified DMEM (Seahorse Bioscience) containing 25 mM glucose, 2 mM L-glutamine, and 1 mM sodium pyruvate, and incubated in a non-CO2 incubator at 37° C. for 30 minutes. OCR and ECAR were measured at 37° C. in a XF96 Extracellular Flux Analyzer (Seahorse Bioscience) using manufacturer recommended protocols. After baseline measurements, OCR and ECAR were measured after sequentially adding anti-CD3/CD28 and metabolic reprogramming agents into each well to the indicated final concentrations using the included ports on the XF96 cartridges. All data were collected using the XF Reader software from Seahorse Bioscience.
OCR is an indicator of mitochondrial OXPHOS, and ECAR is predominantly a measure of lactic acid formed during glycolytic energy metabolism, and thus reflects overall glycolytic flux. Primary, naïve 5C.C7 CD4^+ T cells were incubated with pigeon cytochrome c (PCC) peptide for 48 hrs and then expanded and rested in IL-2 for an additional 5 days to generate previously activated CD4^+ cells. After measuring the baseline bioenergetics of these resting CD4^+ cells, cells were re-stimulated with anti-CD3/CD28 (FIG. 9A and FIG. 9B). […] Upon reaching the peak of glycolytic flux, metabolic reprogramming agents were administered to the cells. 2-DG is a glucose analog that inhibits hexokinase, the first enzyme in the glycolytic pathway (Rowe et al. (2013) Nature Medicine 19(4):488-493). […] Metformin is a commonly used oral hypoglycemic that activates AMPK, inhibits mitochondrial respiratory complex I and promotes fatty acid oxidation (Buzzai et al. (2007) Cancer Research 67(14):6745-6752; El-Mir et al. (2000) The Journal of Biological Chemistry 275(1):223-228).

CD4+ and CD8+ T cells [4] = test: T cell proliferation (eFluor 670 dilution) of splenocytes stimulated with anti-CD3; type: cell-based, C57BL/6 mice; conditions: anti-CD3, 72 h; DON 5 μM; 2-DG 0.6 mM; Metformin 1 mM
CD4+ and CD8+ T cells [5] = test: IFN-γ secretion of anti-CD3 stimulated splenocytes (ELISA); type: cell-based, C57BL/6 mice; conditions: anti-CD3, 24 h; DON 5 μM; 2-DG 0.6 mM; Metformin 1 mM
glutaminase = test: Glutaminase activity analysis of activated CD4+ T cells (radiolabeled assay); type: cell-based, mice; conditions: anti-CD3/CD28, 24 hrs; DON 5 μM
Description: Glutaminase activity analysis: Glutaminase activity measurement was adapted from previously described protocols (Thomas et al. (2013) Biochemical and Biophysical Research Communications 438(2):243-248). Briefly, T cells were lysed in ice-cold potassium phosphate buffer (45 mM, pH 8.2) containing protease inhibitors (Roche, Complete Protease Inhibitor Cocktail, 1 tablet in 50 ml) and incubated with 3H-glutamine (0.03 μM, 0.91 μCi) for 90 min at room temperature. The reactions were carried out in 50 μl reaction volumes in a 96-well microplate. At the end of the reaction period, the assay was terminated upon the addition of imidazole buffer (20 mM, pH 7). 96-well spin columns packed with strong anion ion-exchange resin (Bio-Rad, AG® 1-X2 Resin, 200-400 mesh, chloride form) were used to separate the substrate and the reaction product. Unreacted ^3H-glutamine was removed by washing with imidazole buffer. ^3H-glutamate, the reaction product, was then eluted with 0.1 N HCl and analyzed for radioactivity using Perkin Elmer's TopCount instrument in conjunction with their 96-well LumaPlates. […]

[6] = tested on: antigen-specific CD4+ T cells; type: in vivo, mice
[7] = tested on: antigen-specific CD8+ T cells; type: in vivo, mice; conditions: DON added to 2DG+Metformin therapy
[8] = tested on: Balb/c to C57BL/6 skin allograft; test: Murine skin transplantation (Balb/c to C57BL/6); type: in vivo, mice
[9] = tested on: Balb/c to C57BL/6 heart allograft; test: Murine heterotopic heart transplantation (Balb/c to C57BL/6); design: species or system mice; conditions: mouse, in vivo
Description: Murine heterotopic heart transplantation: BALB/c mice served as heart donors and C57BL/6 mice serve as allograft recipients. Either abdominal or cervical heterotopic heart transplantation was performed according to previously published methods (Corry et al. (1973) Transplantation 16(4):343-350; Oberhube et al. (2014) J Vis Exp 92:e50753). Functionality of the transplanted heart was monitored daily by palpation. Clinical rejection was defined by cessation of palpable heartbeats and confirmed by autopsy. Loss of graft function within 48 hrs of transplantation was considered as a technical failure, and animals in which this occurred were omitted from the analysis.
Finally, this metabolic reprogramming therapy with at least three metabolic reprogramming agents was employed in a Balb/c to C57BL/6 heart transplantation, which is a vascularized solid organ transplantation model. Strikingly, when recipient mice were treated with metabolic reprogramming therapy with at least three metabolic reprogramming agents, the grafted hearts continued beating for more than 100 days post-transplantation without rejection (FIG. 15F).

[10] = tested on: mouse model of Acute Respiratory Distress Syndrome (ARDS); test: Mouse model of acute respiratory distress syndrome (ARDS); type: in vivo, mice; conditions: treated on day 2 & 4
Text: FIG. 17A, FIG. 17B, and FIG. 17C show targeting glutamine in a mouse model of acute respiratory distress syndrome (ARDS). Mice were challenged with Ips (FIG. 17A) to induce ARDS and treated with DON on day 2 & 4.

[11] = tested on: mouse model of Pulmonary Fibrosis; test: Mouse model of pulmonary fibrosis (intratracheal bleomycin); design: species or system mice; conditions: in vivo
Description: Mice were treated with intratracheal bleomycin to induce fibrosis.

cerebral malaria = test: Cerebral malaria in mice; type: in vivo; conditions: treated on day 5 post infection and on day 6, every other day
Description: FIG. 19A and FIG. 19B show the targeting of glutamine metabolism to cure Cerebral malaria. Mice were treated on day 5 post infection and on day 6 (12 hours before subsequent death) with DON every other day.

[12] = tested on: arthritis in a mouse model; test: Arthritis mouse model; conditions: in vivo
[13] = tested on: pneumonitis in a mouse model; test: Pneumonitis mouse model; conditions: in vivo
[14] = In vitro plasma stability, human plasma; type: in vitro ADME
[15] = In vitro plasma stability, pig plasma; type: in vitro ADME
[16] = In vitro plasma stability, dog plasma; type: in vitro ADME
[17] = In vitro plasma stability, monkey plasma; type: in vitro ADME, monkeys
[18] = In vitro plasma stability, mouse plasma; type: in vitro ADME, mice

## CC(C)C[C@H](N)C(=O)N[C@@H](CCC(=O)C=[N+]=[N-])C(=O)OC(C)C [Compound 9]
[1]
  liver microsomal stability: moderate-high stability
[2]
  liver microsomal stability: moderate-high stability

## CC(C)OC(=O)[C@H](CCC(=O)C=[N+]=[N-])NC(=O)OC(OC(=O)C(C)(C)C)c1ccccc1 (some centres unmarked) [Compound 47]
[3]
  CSF-to-plasma ratio of DON: increased CSF-to-plasma ratios
  amount of DON delivered to the CSF relative to DON: substantially higher amounts of DON

## [N-]=[N+]=CC(=O)CC[C@H](N)C(=O)O [DON, 6-Diazo-5-oxo-L-norleucine]
CD4+ T cells
  ECAR (glycolytic flux) of activated T cells: did not have an obvious impact
  OCR (OXPHOS) of activated T cells: did not have an obvious impact
CD4+ and CD8+ T cells [4]
  T cell proliferation: decreased
CD4+ and CD8+ T cells [5]
  IFN-γ (cytokine) production: decreased
glutaminase
  glutaminase activity of activated T cells: significantly abrogated
[6]; DON added to 2DG+Metformin therapy
  CD4+ T cell effector function: very potent inhibition
[6]; relative frequency
  frequency of Foxp3+ CD4+ T cells (Tregs) in vivo: increased the relative frequency of regulatory T cells
[7]
  CD8+ T cell effector function: very potent inhibition
[8]; fully MHC-mismatched
  skin allograft rejection / graft survival: prevents transplant rejection and prolongs skin graft survival
[8]; treatment from day 0 until rejection, no treatment 11 days
  skin graft median survival time (MST): 22 days
[9]
  heart transplant rejection: able to prevent heart transplant rejection
[10]
  lung damage: less lung damage
  recovery (weight gain): more rapid recovery (weight gain)
[11]
  lung damage: markedly decreased lung damage
  recruitment/generation of lung fibrocytes: decrease in the recruitment/generation of lung fibrocytes
Cerebral malaria
  death (survival): prevent death at such a late stage of disease
[12]
  arthritis: treated arthritis
[13]
  pneumonitis: treated pneumonitis

## CC(=O)N[C@@H](Cc1c[nH]c2ccccc12)C(=O)N[C@@H](CCC(=O)C=[N+]=[N-])C(=O)OC(C)C [Compound 60a]
[1]
  liver microsomal stability: moderate-high stability
[2]
  liver microsomal stability: moderate-high stability

## CC(C)OC(=O)[C@H](CCC(=O)C=[N+]=[N-])NC(=O)O[C@H](C)OC(=O)C(C)(C)C (single isomer, unassigned) [Compound 14b]
[3]
  CSF-to-plasma ratio of DON: increased CSF-to-plasma ratios
  amount of DON delivered to the CSF relative to DON: substantially higher amounts of DON
[14]
  plasma stability: stable
[15]
  plasma stability: stable
[16]
  plasma stability: stable
[17]
  plasma stability: stable
[18]
  plasma stability: rapidly metabolized

## CN(C)C(=N)N=C(N)N [metformin]
CD4+ T cells
  ECAR (glycolytic flux) of activated T cells: increase
  OCR (OXPHOS) of activated T cells: marked suppression
CD4+ and CD8+ T cells [4]
  T cell proliferation: inhibited T cell proliferation and cytokine production in a dose-dependent manner
CD4+ and CD8+ T cells [5]
  IFN-γ (cytokine) production: inhibited T cell proliferation and cytokine production in a dose-dependent manner

## CC(C)OC(=O)[C@H](CCC(=O)C=[N+]=[N-])NC(=O)[C@@H](N)Cc1c[nH]c2ccccc12 [Compound 38a]
[1]
  liver microsomal stability: moderate-high stability
[2]
  liver microsomal stability: moderate-high stability

## O=CC[C@@H](O)[C@H](O)[C@H](O)CO [Compound 2-DG, 2-deoxy-D-glucose]
CD4+ T cells
  ECAR (glycolytic flux) of activated T cells: sharp decrease
  OCR (OXPHOS) of activated T cells: insignificant increase
CD4+ and CD8+ T cells [4]
  T cell proliferation: inhibited T cell proliferation and cytokine production in a dose-dependent manner
CD4+ and CD8+ T cells [5]
  IFN-γ (cytokine) production: inhibited T cell proliferation and cytokine production in a dose-dependent manner
